Results from ChEMBL document CHEMBL3352064, “Synthesis and bioactive evaluation of a novel series of coumarinazoles” (Bioorg Med Chem Lett, 2014).
In brackets after ≈: the same amount, converted by molar mass.

Assays:
[1] = system: Cyberlindnera jadinii; test: Antimicrobial activity against Candida utilis by two-fold serial dilution technique; type: functional; conditions: Williopsis jadinii
[2] = system: Aspergillus flavus; test: Antimicrobial activity against Aspergillus flavus by two-fold serial dilution technique; type: functional
[3] = system: Saccharomyces cerevisiae; test: Antimicrobial activity against Saccharomyces cerevisiae by two-fold serial dilution technique; type: functional
[4] = system: Candida albicans; test: Antimicrobial activity against Candida albicans by two-fold serial dilution technique; type: functional
[5] = system: Candida; test: Antimicrobial activity against Candida mycoderma by two-fold serial dilution technique; type: functional
[6] = system: Micrococcus luteus; test: Antimicrobial activity against Micrococcus luteus ATCC 4698 by two-fold serial dilution technique; type: functional
[7] = system: Staphylococcus aureus; test: Antimicrobial activity against methicillin-resistant Staphylococcus aureus N315 by two-fold serial dilution technique; type: functional
[8] = system: Pseudomonas aeruginosa; test: Antimicrobial activity against Pseudomonas aeruginosa by two-fold serial dilution technique; type: functional
[9] = system: Bacillus subtilis; test: Antimicrobial activity against Bacillus subtilis by two-fold serial dilution technique; type: functional
[10] = system: Shigella dysenteriae; test: Antimicrobial activity against Shigella dysenteriae by two-fold serial dilution technique; type: functional
[11] = system: Escherichia coli; test: Antimicrobial activity against Escherichia coli JM109 by two-fold serial dilution technique; type: functional
[12] = n-Octanol-water partition coefficient, log P of the compound after 24 hrs by shake flask method; type: physicochemical

| Structure (SMILES) | MIC [1] | MIC [2] | MIC [3] | MIC [4] | MIC [5] | MIC [6] | MIC [7] | MIC [8] | MIC [9] | MIC [10] | MIC [11] | logP at 24 h [12] |
| --- | --- | --- | --- | --- | --- | --- | --- | --- | --- | --- | --- | --- |
| Cc1cc(=O)oc2cc(OCC(O)Cn3cncn3)c(OCC(O)Cn3cncn3)cc12 (stereo unspecified) | 4 µg/mL (≈ 9.04 µM) | 32 µg/mL (≈ 72.3 µM) | 32 µg/mL (≈ 72.3 µM) | 1 µg/mL (≈ 2.26 µM) | 4 µg/mL (≈ 9.04 µM) | 32 µg/mL (≈ 72.3 µM) | 8 µg/mL (≈ 18.1 µM) | 32 µg/mL (≈ 72.3 µM) | 16 µg/mL (≈ 36.2 µM) | 16 µg/mL (≈ 36.2 µM) | 1 µg/mL (≈ 2.26 µM) | 0.65 |
| Cc1cc(=O)oc2cc(OCC(O)Cn3nnc4ccccc43)c(OCC(O)Cn3nnc4ccccc43)cc12 (stereo unspecified) | 16 µg/mL (≈ 29.5 µM) | 256 µg/mL (≈ 472 µM) | 32 µg/mL (≈ 59 µM) | 8 µg/mL (≈ 14.7 µM) | 16 µg/mL (≈ 29.5 µM) | 16 µg/mL (≈ 29.5 µM) | 32 µg/mL (≈ 59 µM) | 32 µg/mL (≈ 59 µM) | 64 µg/mL (≈ 118 µM) | 64 µg/mL (≈ 118 µM) | 32 µg/mL (≈ 59 µM) | 0.48 |
| Cc1cc(=O)oc2cc(OCC(O)Cn3cnc4ccccc43)c(OCC(O)Cn3cnc4ccccc43)cc12 (stereo unspecified) | 512 µg/mL (≈ 947 µM) | 512 µg/mL (≈ 947 µM) | > 512 µg/mL | > 512 µg/mL | 64 µg/mL (≈ 118 µM) | 128 µg/mL (≈ 237 µM) | 512 µg/mL (≈ 947 µM) | 128 µg/mL (≈ 237 µM) | > 512 µg/mL | > 512 µg/mL | > 512 µg/mL | 0.49 |
| Cc1cc2ncn(CC(O)COc3cc4oc(=O)cc(C)c4cc3OCC(O)Cn3cnc4cc(C)c(C)cc43)c2cc1C (stereo unspecified) | 4 µg/mL (≈ 6.7 µM) | 64 µg/mL (≈ 107 µM) | 16 µg/mL (≈ 26.8 µM) | 16 µg/mL (≈ 26.8 µM) | 32 µg/mL (≈ 53.6 µM) | 64 µg/mL (≈ 107 µM) | 32 µg/mL (≈ 53.6 µM) | 16 µg/mL (≈ 26.8 µM) | 128 µg/mL (≈ 215 µM) | 16 µg/mL (≈ 26.8 µM) | 32 µg/mL (≈ 53.6 µM) | 0.61 |
| Cc1cc(=O)oc2cc(OCC(O)CSc3nc4ccccc4[nH]3)c(OCC(O)CSc3nc4ccccc4[nH]3)cc12 (stereo unspecified) | 2 µg/mL (≈ 3.31 µM) | 64 µg/mL (≈ 106 µM) | 16 µg/mL (≈ 26.5 µM) | 8 µg/mL (≈ 13.2 µM) | 16 µg/mL (≈ 26.5 µM) | 32 µg/mL (≈ 52.9 µM) | 64 µg/mL (≈ 106 µM) | 16 µg/mL (≈ 26.5 µM) | 64 µg/mL (≈ 106 µM) | 32 µg/mL (≈ 52.9 µM) | 0.5 µg/mL (≈ 0.827 µM) | 0.58 |
| OC(Cn1cncn1)(Cn1cncn1)c1ccc(F)cc1F [FLUCONAZOLE] | 8 µg/mL (≈ 26.1 µM) | 256 µg/mL (≈ 836 µM) | 16 µg/mL (≈ 52.2 µM) | 1 µg/mL (≈ 3.27 µM) | 4 µg/mL (≈ 13.1 µM) |  |  |  |  |  |  |  |
| CCn1cc(C(=O)O)c(=O)c2cc(F)c(N3CCNCC3)cc21 [NORFLOXACIN] |  |  |  |  |  | 2 µg/mL (≈ 6.26 µM) | 8 µg/mL (≈ 25.1 µM) | 1 µg/mL (≈ 3.13 µM) | 16 µg/mL (≈ 50.1 µM) | 4 µg/mL (≈ 12.5 µM) | 16 µg/mL (≈ 50.1 µM) |  |
